According to patent US11617814B2, “Methods of treatment comprising administering polymer particles configured for intravascular delivery of pharmaceutical agents” (TERUMO CORPORATION, priority 2016, dated 2023):

How the values were obtained:
[1] = Solubility of SN-38 in water, observed in the elution extract; assay type: physicochemical; details: yellow precipitate formed in the extract solution
Method: The kinetics of SN-38 elution from the preloaded particles is illustrated in FIG. 1. The theoretical amount of SN-38 tethered on the particles is 15 mg for 100 mg of particles assuming no loss of the drug during the preparation of the particles. Upon immersion in PBS, SN-38 was eluted slowly over a period of time. On day 8, there was approximately 3% of SN-38 eluted. The elution curve obtained is fairly close to a linear line over the period of 8 days with a steady daily release between 3-5% of loaded SN-38 indicating controlled release of SN-38 is achieved with the preloaded particles. The total amount of SN-38 eluted during the first 8 days was 34% of the theoretical amount.

[2] = In vivo elution: systemic concentration of SN-38 in plasma after embolization, LC/MS/MS
Method: (§1) Blood samples were obtained to determine the systemic concentration of SN-38 before embolization as well as 20, 40, 60, 120 and 180 minutes post-embolization. An additional blood sample was collected at sacrifice, which was at day 6. Plasma was prepared by centrifugation and the samples were frozen at −80° C. until analysis.
Quantitation was done via liquid chromatography-tandem mass spectrometry (LC/MS/MS) using an Agilent 1260 Infinity HPLC system coupled with ABSciex 4000 Q Trap LC/MS/MS system. Chromatographic separation was performed using an Agilent Poroshell 120 C18 column (4.6 mm×50 mm, 2.7 μm) at 25° C. and mobile phases consisting of A: 0.1% formic acid in acetonitrile and B: 0.1% formic acid in water. At a flow rate of 1.0 mL/min, the chromatographic gradient was 27% buffer A from 0.0-0.3 min, 27-52% from 0.3-2.5 min, 52-80% from 2.5-2.6 min, 80% from 2.6-2.7 min, 80-27% from 2.7-2.8 min, 27% from 2.9-4.0 min. The plasma samples were precipitated with 3 fold excess (v/v) of acetonitrile containing 50 ppb of the internal standard, camptothecin. After being vortexed and centrifuged at 13,000 rpm at 4° C. for 10 minutes, 200 μL of the supernatant of each sample was diluted with 600 μL of 0.1% formic acid in water. Injection of 100 μL of the diluted sample was performed. The calibration curve was prepared by spiking blank plasma to a range from 2.5-500 ppb for SN-38. […]

[3] = In vivo elution: systemic concentration of oxaliplatin in plasma after embolization, LC/MS/MS; design: species or system pig
Method: as §1, with “oxaliplatin” for “SN-38”, “6 or day 7.” for “6.”
Quantitation was done via LC/MS/MS using an Agilent 1260 Infinity HPLC system coupled with ABSciex 4000 Q Trap LC/MS/MS system. Chromatographic separation was performed using an Agilent Poroshell 120 C18 column (4.6 mm×50 mm, 2.7 μm) at 50° C. and mobile phase consisting of A: 0.1% formic acid in acetonitrile and B: 0.1% formic acid in water. At a flow rate of 500 μL/min, the chromatographic gradient was 0% buffer A from 0.0-2.5 min, 0-90% from 2.5-2.6 min, 90% from 2.6-4.1 min, 90-0% from 4.1-4.2 min, and 0% from 4.2-10.0 min. The divert valve was open from 1.4-2.7 min and 3.4-4.6 min. The plasma samples were purified by ultracentrifugation first and then solid phase extraction. Plasma sample, 500 μL, was loaded onto a 30K Nanosep Centrifuge Device and centrifuged to collect the plasma ultra-filtrate. The centrifugation was performed at 4° C., starting at 8,000 rcf for 30 mins, 9,000 rcf for 30 mins, and 10,000 rcf for 15 mins with an increment of 1,000 rcf every 15 mins until 13,000 rcf for 2 hrs and 15 mins. The collected plasma ultra-filtrate was diluted with 1:1 (v/v) ratio of acetonitrile containing 500 ppb of the internal standard, carboplatin. The mixture, 600 μL, was loaded onto a 1 mL HybridSPE-Phospholipid cartridge, which was placed in a 15 mL conical centrifuge tube and centrifuged at 4° C. at 1,000 rcf for 5 mins and then 4,000 rcf for 5 mins. The sample collected in the centrifuge tube was then transferred to an HPLC vial for analysis. Injection of 50 μL of the sample was performed. The calibration curve was prepared by spiking the blank plasma ultra-filtrate to a range from 5-2000 ppb. The systemic concentration of oxalipatin in plasma over time is illustrated in FIG. 3.

SMILES	solubility of SN-38 in water [1]	systemic concentration of SN-38 in plasma ([2]; each time point: pre-embolization, 20, 40, 60, 120, 180 min post-embolization and day 6, calibration 2.5-500 ppb)	time of highest systemic concentration of SN-38 ([2]; post embolization, plasma)	systemic concentration of oxaliplatin in plasma ([3]; each time point: pre-embolization, 20, 40, 60, 120, 180 min post-embolization and day 6 or 7, plasma ultra-filtrate, calibration 5-2000 ppb)	systemic concentration of oxaliplatin at day 6 ([3]; one sample pig, day 6)	time of highest systemic concentration of oxaliplatin ([3]; post embolization, one sample pig)
CCc1c2c(nc3ccc(O)cc13)-c1cc3c(c(=O)n1C2)COC(=O)[C@]3(O)CC [SN-38, 7-ethyl-10-hydroxy-camptothecin]	poor solubility	lower than the lower limit of quantitation	3 h			
O=C1[O][Pt]2([NH][C@@H]3CCCC[C@H]3[NH]2)[O]C1=O [oxaliplatin]				lower than the lower limit of quantitation	close to pre-embolization	3 h
